According to patent US8378117B2 (priority 2005, dated 2013):
Like-named read-outs stand apart in the source and are kept apart here.

Assays:
CB1 receptor = biological target: T1, CB1 receptor (Homo sapiens, UniProt P21554); assay: Binding assay for CB1 agonists or inverse agonists (SK-N-MC membranes, [3H]-CP-55,940); conditions: for IC50: Cannabinoid CB1 Receptor Binding IC50, calculated by linear regression from percent inhibition at various test concentrations
T1 construct: expressed in transfected cells
Procedure, shortened: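 Radioligand displacement: [3H]-CP-55,940 at […], 90 min at 30° C, pH 7.5 Tris buffer with 0.5 mg/mL fatty-acid-free BSA, using semi-purified membranes of human-CB1-transfected SK-N-MC cells. Bound counts collected on GF/C filters, 10 uM WIN 55,212 for non-specific; IC50 from percent inhibition over several concentrations.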

CB2 receptor = biological target: T2, CB2 receptor (Homo sapiens, UniProt P34972); assay: Binding assay for CB2 agonists or inverse agonists (SK-N-MC membranes, [3H]-CP-55,940)
T2 construct: expressed in transfected cells
Procedure, shortened: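 IC50 came from percent-inhibition data over several compound concentrations, fitted by linear regression. Binding used semi-purified membranes of human CB2-transfected SK-N-MC cells, 90 min at 30 °C, pH 7.5 Tris-HCl with MgCl2, EDTA and BSA, then filtration and scintillation counting.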

[1] = read-out: CB1 receptor binding percent inhibition, test concentration 0.2 μM (footnote 2)
[2] = read-out: CB2 receptor binding percent inhibition, test concentration 0.2 μM (footnote 2)
[3] = test concentration 0.2 μM (footnote 2)
[4] = test concentration 0.2 μM (footnote 2), read-out: CB2 receptor binding percent inhibition

T2 sequence (P34972 whole entry): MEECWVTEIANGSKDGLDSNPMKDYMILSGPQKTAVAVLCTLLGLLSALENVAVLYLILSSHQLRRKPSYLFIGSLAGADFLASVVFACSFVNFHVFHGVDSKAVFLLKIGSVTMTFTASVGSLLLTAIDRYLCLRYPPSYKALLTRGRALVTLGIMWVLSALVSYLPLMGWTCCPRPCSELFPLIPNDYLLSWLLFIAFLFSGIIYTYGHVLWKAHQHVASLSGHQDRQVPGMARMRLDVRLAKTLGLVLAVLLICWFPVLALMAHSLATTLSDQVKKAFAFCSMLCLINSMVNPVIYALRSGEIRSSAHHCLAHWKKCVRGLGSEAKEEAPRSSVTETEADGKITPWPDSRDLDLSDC
T1 sequence (P21554 whole entry): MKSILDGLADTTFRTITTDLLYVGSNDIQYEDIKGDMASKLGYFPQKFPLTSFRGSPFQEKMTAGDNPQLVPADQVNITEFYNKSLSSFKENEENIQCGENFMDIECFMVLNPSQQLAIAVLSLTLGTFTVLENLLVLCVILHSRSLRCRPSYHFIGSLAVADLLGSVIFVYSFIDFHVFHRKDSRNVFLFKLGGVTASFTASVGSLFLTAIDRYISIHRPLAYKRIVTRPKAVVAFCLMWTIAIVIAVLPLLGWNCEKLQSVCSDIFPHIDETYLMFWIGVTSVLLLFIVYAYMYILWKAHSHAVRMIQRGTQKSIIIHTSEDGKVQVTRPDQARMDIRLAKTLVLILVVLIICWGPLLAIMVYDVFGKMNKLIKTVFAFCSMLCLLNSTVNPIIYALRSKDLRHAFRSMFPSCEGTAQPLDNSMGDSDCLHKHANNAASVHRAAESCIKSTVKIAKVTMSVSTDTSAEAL

Structure (SMILES) | inhibition at 0.2 µM (CB1 receptor; [1]) [%] | inhibition at 0.2 µM (CB2 receptor; [4]) [%] | other results
C[C@H](NC(=O)c1nn(-c2ccc(Cl)cc2Cl)c2c1CCCC/C2=C\c1ccc(Cl)cc1)c1ccccc1 [Cpd 139, (8E)-8-(4-chloro-benzylidene)-1-(2,4-dichloro-phenyl)-1,4,5,6,7,8-hexahydro-cycloheptapyrazole-3-carboxylic acid [(1S)-1-phenyl-ethyl]-amide] | 72 |  | IC50 (CB1 receptor): 50 nM; inhibition at 0.2 µM (CB2 receptor; [2]): 30%
C[C@@H](NC(=O)c1n[nH]c2c1CCCC/C2=C\c1ccc(Cl)cc1)C1CCCCC1 [Cpd 140, (8E)-8-(4-chloro-benzylidene)-1,4,5,6,7,8-hexahydro-cycloheptapyrazole-3-carboxylic acid [(1R)-1-cyclohexyl-ethyl]-amide] | 97 |  | IC50 (CB1 receptor): 6 nM; CB2 receptor binding percent inhibition (CB2 receptor; [3]): ^(2)100%
C[C@H](NC(=O)c1n[nH]c2c1CCCC/C2=C\c1ccc(Cl)cc1)c1ccccc1 [Cpd 141, (8E)-8-(4-chloro-benzylidene)-1,4,5,6,7,8-hexahydro-cycloheptapyrazole-3-carboxylic acid [(1S)-1-phenyl-ethyl]-amide] |  |  | IC50 (CB1 receptor): 6 nM; inhibition at 0.2 µM (CB1 receptor; read-out: CB1 receptor binding percent inhibition): 95%; CB2 receptor binding percent inhibition (CB2 receptor; [3]): ^(2)97%
C[C@H](NC(=O)c1n[nH]c2c1CCCC/C2=C\c1ccc(Cl)cc1)C1CCCCC1 [Cpd 143, (8E)-8-(4-chloro-benzylidene)-1,4,5,6,7,8-hexahydro-cycloheptapyrazole-3-carboxylic acid [(1S)-1-cyclohexyl-ethyl]-amide] | 99 |  | IC50 (CB1 receptor): 2 nM; inhibition at 0.002 µM (CB1 receptor; read-out: CB1 receptor binding percent inhibition, test concentration 0.002 μM (footnote 11)): 55%; CB1 receptor binding percent inhibition (CB1 receptor; test concentration not stated): 77%; CB2 receptor binding percent inhibition (CB2 receptor; [3]): ^(2)100%
O=C(NN1CCCCC1)c1n[nH]c2c1CCCC/C2=C\c1ccc(Cl)cc1 [Cpd 144, (8E)-8-(4-chloro-benzylidene)-1,4,5,6,7,8-hexahydro-cycloheptapyrazole-3-carboxylic acid piperidin-1-ylamide] | 69 |  | IC50 (CB1 receptor): 30 nM; CB2 receptor binding percent inhibition (CB2 receptor; [3]): ^(2)90%
O=C(NN1CCOCC1)c1n[nH]c2c1CCCC/C2=C\c1ccc(Cl)cc1 [Cpd 145, (8E)-8-(4-chloro-benzylidene)-1,4,5,6,7,8-hexahydro-cycloheptapyrazole-3-carboxylic acid morpholin-4-ylamide] | 54 | 68 | 
O=C(Nc1ccncc1)c1nn(-c2ccc(Cl)cc2Cl)c2c1CCCC/C2=C\c1ccc(Cl)cc1 [Cpd 153, (8E)-8-(4-chloro-benzylidene)-1-(2,4-dichloro-phenyl)-1,4,5,6,7,8-hexahydro-cycloheptapyrazole-3-carboxylic acid pyridin-4-ylamide] | 44 | 0 | 
NS(=O)(=O)c1ccc(NC(=O)c2nn(-c3ccc(Cl)cc3Cl)c3c2CCCC/C3=C\c2ccc(Cl)cc2)cc1 [Cpd 154, (8E)-8-(4-chloro-benzylidene)-1-(2,4-dichloro-phenyl)-1,4,5,6,7,8-hexahydro-cycloheptapyrazole-3-carboxylic acid (4-sulfamoyl-phenyl)-amide] | 33 | 7 | 
CC(C)[C@@H](CO)NC(=O)c1nn(-c2ccc(Cl)cc2Cl)c2c1CCCC[C@@H]2Cc1cccc(Cl)c1 [Cpd 158, (8R)-8-(3-chloro-benzyl)-1-(2,4-dichloro-phenyl)-1,4,5,6,7,8-hexahydro-cycloheptapyrazole-3-carboxylic acid [(1S)-1-hydroxymethyl-2-methyl-propyl]-amide] | 14 | 0 | 
CC(C)[C@@H](CO)NC(=O)c1nn(-c2ccc(Cl)cc2Cl)c2c1CCCC[C@H]2Cc1cccc(Cl)c1 [Cpd 159, (8S)-8-(3-chloro-benzyl)-1-(2,4-dichloro-phenyl)-1,4,5,6,7,8-hexahydro-cycloheptapyrazole-3-carboxylic acid [(1S)-1-hydroxymethyl-2-methyl-propyl]-amide] | 40 | 3 | 
C[C@H](NS(=O)(=O)/C=C/c1n[nH]c2c1CCCCC2Cc1cccc(Cl)c1)c1ccccc1 (stereo partly drawn) [Cpd 160, (2E)-2-[8-(3-chloro-benzyl)-1,4,5,6,7,8-hexahydro-cycloheptapyrazol-3-yl]-ethenesulfonic acid [(1S)-1-phenyl-ethyl]-amide] | 2 | 75 | 
O=C(N[C@H](CO)c1ccccc1)c1nn(-c2ccc(Cl)cc2Cl)c2c1CCCC[C@@H]2Cc1cccc(Cl)c1 [Cpd 161, (8R)-8-(3-chloro-benzyl)-1-(2,4-dichloro-phenyl)-1,4,5,6,7,8-hexahydro-cycloheptapyrazole-3-carboxylic acid [(1S)-2-hydroxy-1-phenyl-ethyl]-amide] | 35 | 3 | 
O=C(N[C@H](CO)c1ccccc1)c1nn(-c2ccc(Cl)cc2Cl)c2c1CCCC[C@H]2Cc1cccc(Cl)c1 [Cpd 162, (8S)-8-(3-chloro-benzyl)-1-(2,4-dichloro-phenyl)-1,4,5,6,7,8-hexahydro-cycloheptapyrazole-3-carboxylic acid [(1S)-2-hydroxy-1-phenyl-ethyl]-amide] | 16 | 5 | 
O=C(N[C@@H](CO)Cc1ccccc1)c1nn(-c2ccc(Cl)cc2Cl)c2c1CCCCC2Cc1cccc(Cl)c1 (stereo partly drawn) [Cpd 163, 8-(3-chloro-benzyl)-1-(2,4-dichloro-phenyl)-1,4,5,6,7,8-hexahydro-cycloheptapyrazole-3-carboxylic acid [(1R)-1-benzyl-2-hydroxy-ethyl]-amide] | 44 | 7 | 
O=C(N[C@H](CO)Cc1ccccc1)c1n[nH]c2c1CCCCC2Cc1cccc(Cl)c1 (stereo partly drawn) [Cpd 166, 8-(3-chloro-benzyl)-1,4,5,6,7,8-hexahydro-cycloheptapyrazole-3-carboxylic acid [(1S)-1-benzyl-2-hydroxy-ethyl]-amide] | 24 |  | inhibition at 0.2 µM (CB2 receptor; [2]): 75%
O=C(N[C@H](CO)c1ccccc1)c1nn(-c2ccc(F)cc2F)c2c1CCCCC2Cc1cccc(F)c1 (stereo partly drawn) [Cpd 168, 1-(2,4-difluoro-phenyl)-8-(3-fluoro-benzyl)-1,4,5,6,7,8-hexahydro-cycloheptapyrazole-3-carboxylic acid [(1S)-2-hydroxy-1-phenyl-ethyl]-amide] | 18 | 11 | 
O=C(N[C@H](CCl)c1ccccc1)c1nn(-c2ccc(F)cc2F)c2c1CCCCC2Cc1cccc(F)c1 (stereo partly drawn) [Cpd 169, 1-(2,4-difluoro-phenyl)-8-(3-fluoro-benzyl)-1,4,5,6,7,8-hexahydro-cycloheptapyrazole-3-carboxylic acid [(1S)-2-chloro-1-phenyl-ethyl]-amide] | 24 | 14 | 
C[C@@H](NC(=O)c1nn(-c2ccncc2)c2c1CCCC/C2=C\c1ccc(Cl)cc1)c1ccccc1 [Cpd 170, (8E)-8-(4-chloro-benzylidene)-1-pyridin-4-yl-1,4,5,6,7,8-hexahydro-cycloheptapyrazole-3-carboxylic acid [(1R)-1-phenyl-ethyl]-amide] | 29 | 27 | 
C[C@H](NC(=O)c1nn(-c2ccncc2)c2c1CCCC/C2=C\c1ccc(Cl)cc1)c1ccccc1 [Cpd 171, (8E)-8-(4-chloro-benzylidene)-1-pyridin-4-yl-1,4,5,6,7,8-hexahydro-cycloheptapyrazole-3-carboxylic acid [(1S)-1-phenyl-ethyl]-amide] | 2 | 38 | 
C[C@@H](NC(=O)c1nn(-c2ccc(F)cc2F)c2c1CCCCC2Cc1cccc(F)c1)c1ccccc1 (stereo partly drawn) [Cpd 173, 1-(2,4-difluoro-phenyl)-8-(3-fluoro-benzyl)-1,4,5,6,7,8-hexahydro-cycloheptapyrazole-3-carboxylic acid [(1R)-1-phenyl-ethyl]-amide] | 32 | 19 | 
C[C@@H](NC(=O)c1nn(C2CCCCC2)c2c1CCCCC2Cc1cccc(F)c1)c1ccccc1 (stereo partly drawn) [Cpd 174, 1-cyclohexyl-8-(3-fluoro-benzyl)-1,4,5,6,7,8-hexahydro-cycloheptapyrazole-3-carboxylic acid [(1R)-1-phenyl-ethyl]-amide] | 0 | 33 | 
C[C@@H](NC(=O)c1nn(-c2nccc(C(F)(F)F)n2)c2c1CCCCC2Cc1cccc(Cl)c1)c1ccccc1 (stereo partly drawn) [Cpd 175, 8-(3-chloro-benzyl)-1-(4-trifluoromethyl-pyrimidin-2-yl)-1,4,5,6,7,8-hexahydro-cycloheptapyrazole-3-carboxylic acid [(1R)-1-phenyl-ethyl]-amide] | 30 | 36 | 
O=C(N[C@@H](CO)c1ccccc1)c1nn(-c2nccc(C(F)(F)F)n2)c2c1CCCCC2Cc1cccc(Cl)c1 (stereo partly drawn) [Cpd 176, 8-(3-chloro-benzyl)-1-(4-trifluoromethyl-pyrimidin-2-yl)-1,4,5,6,7,8-hexahydro-cycloheptapyrazole-3-carboxylic acid [(1R)-2-hydroxy-1-phenyl-ethyl]-amide] | 4 | 43 | 
C[C@@H](NC(=O)c1nn(-c2ccnc3cc(Cl)ccc23)c2c1CCCCC2Cc1cccc(Cl)c1)c1ccccc1 (stereo partly drawn) [Cpd 177, 8-(3-chloro-benzyl)-1-(7-chloro-quinolin-4-yl)-1,4,5,6,7,8-hexahydro-cycloheptapyrazole-3-carboxylic acid [(1R)-1-phenyl-ethyl]-amide] | 4 | 27 | 
